{
  "source": "patent US20120238630A1",
  "about": "“COMPOSITIONS COMPRISING NONSTEROIDAL ANTI - INFLAMMATORY DRUGS” (Alfa Wassermann S.P.A., priority 2009, published 2012)",
  "assay": "Bioavailability / systemic FP plasma concentration after oral nebulization of the liquid composition containing FP",
  "format": "in vivo, human",
  "protocol": "The solutions have been administered to 26 healthy volunteers, among whom 16 were males and 10 females, aged between 18 and 55.\nThe healthy volunteers received the pharmaceutical composition prepared according to Example 1 in two 200 μl nebulizations three times a day, for a seven-day period, then a single administration on the eighth day.\n[…]\nDuring the period of administration of the composition object of the present invention, blood samples were taken before each administration and on days 1, 4, 6, 7 and 8.\nThe plasma concentration was determined for each patient before the first dose and, successively, in the morning of the days 1, 4, 6, 7 and 8 and after 1, 2, 3, 4, 6, 8, 10, 12, 16 and 24 hours since the last treatment.\nEach sample was moved into a test tube containing heparin and centrifuged, and the plasma was divided into 500 μl aliquots and freezed at −80° C.\nThe following parameters were determined:\nTmax: time wherein Cmax is reached.\nAUC: area subtended to the concentration-time curve calculated by means of the linear trapezoidal rule.",
  "key": {"[1]": {"conditions": "after the last administration (day 8)"}},
  "data": [
    {"substance": "2-(2-fluoro-4-phenyl-phenyl) propionic acid [FP]", "values": [
      {"measurement": "FP average plasma concentrations", "setting": "1 hour after the last administration (day 8)", "result": 0.182, "unit": "µg/mL"},
      {"measurement": "FP average plasma concentrations", "setting": "2 hours after the last administration (day 8)", "result": 0.144, "unit": "µg/mL"},
      {"measurement": "FP average plasma concentrations", "setting": "3 hours after the last administration (day 8)", "result": 0.115, "unit": "µg/mL"},
      {"measurement": "FP average plasma concentrations", "setting": "4 hours after the last administration (day 8)", "result": 0.096, "unit": "µg/mL"},
      {"measurement": "FP average plasma concentrations", "setting": "6 hours after the last administration (day 8)", "result": 0.067, "unit": "µg/mL"},
      {"measurement": "FP average plasma concentrations", "setting": "8 hours after the last administration (day 8)", "result": 0.045, "unit": "µg/mL"},
      {"measurement": "FP average plasma concentrations", "setting": "10 hours after the last administration (day 8)", "result": 0.029, "unit": "µg/mL"},
      {"measurement": "FP average plasma concentrations", "setting": "12 hours after the last administration (day 8)", "result": 0.020, "unit": "µg/mL"},
      {"measurement": "FP average plasma concentrations", "setting": "16 hours after the last administration (day 8)", "result": 0.008, "unit": "µg/mL"},
      {"measurement": "FP average plasma concentrations", "setting": "24 hours after the last administration (day 8)", "result": 0.001, "unit": "µg/mL"},
      {"measurement": "FP systemic concentrations", "setting": "after repeated oral nebulization, healthy volunteers", "result": "very low"},
      {"measurement": "AUC0-inf.", "setting": "[1]", "result": 1140, "unit": "ng·h/mL"},
      {"measurement": "AUC0-inf. higher than the AUC at the last point", "setting": "[1]", "result": "ca. 20%"},
      {"measurement": "Cmax", "setting": "after the last administration (day 8), Example 1 composition nebulized in oral cavity, healthy volunteers", "result": "182 ± 50", "unit": "ng/mL"},
      {"measurement": "Tmax", "setting": "after the last administration (day 8), Example 1 composition, healthy volunteers", "result": 1, "unit": "h"},
      {"measurement": "AUC0-24", "setting": "after the last administration (day 8), linear trapezoidal rule", "result": 940, "unit": "ng·h/mL"},
      {"measurement": "FP average plasma concentrations", "setting": "day 1, time 0 (before the first dose), Example 1 composition, 26 healthy volunteers", "result": 0.000, "unit": "µg/mL"},
      {"measurement": "FP average plasma concentrations", "setting": "day 4, time 0, two 200 μl nebulizations three times a day, Example 1 composition", "result": 0.043, "unit": "µg/mL"},
      {"measurement": "FP average plasma concentrations", "setting": "day 6, time 0, two 200 μl nebulizations three times a day, Example 1 composition", "result": 0.042, "unit": "µg/mL"},
      {"measurement": "FP average plasma concentrations", "setting": "day 7, time 0, two 200 μl nebulizations three times a day, Example 1 composition", "result": 0.039, "unit": "µg/mL"},
      {"measurement": "FP average plasma concentrations", "setting": "day 8, time 0, after seven days of two 200 μl nebulizations three times a day, Example 1 composition", "result": 0.040, "unit": "µg/mL"},
      {"measurement": "amount absorbed, times lower than solutions of the same concentration administered by oral route", "setting": "oropharyngeal application versus literature oral data (Stalker 1991; Gonzalez-Younes 1991)", "result": "about 10 times"},
      {"measurement": "FP accumulation in plasma after repeated administrations", "setting": "three times a day for seven days, plasma on days 1, 4, 6, 7 and 8", "result": "no FP accumulation"}
    ]}
  ]
}
